Source: US20140275539A1, “STABILIZATION OF RADIOIODINATED AND ASTATINATED PHARMACEUTICALS AND IMAGING AGENTS” (priority 2013, published 2014)

Columns and labels:
[1] = more cytotoxic than ^123I-MIBG; cited from earlier work
[2] = DFT calculation of C—I bond dissociation energy (B3LYP/6-31G(d,p)/MIDI!, Gaussian 03); conditions: estimated from the DFT data, compound not covered by the calculations
Procedure: Density Functional Theory (DFT) calculations performed on a variety of model structures strongly support the novelty and uniqueness of this approach. […] Calculations were performed with the Gaussian 03 suite of programs.
Table 2 summarizes results of density functional theory calculations (B3LYP/6-31G(d,p)/MIDI!, thermal and zero point energy corrected) for compounds 1, 7, and 8, showing the dissimilar impact of ortho-chlorine substitution on the strength of the C—I bond. […] Chlorine substitution results in significant C—I bond weakening compared to iodobenzene.
Table 3 depicts the results of density functional theory calculations for compounds 1, 5, and 9-14 (B3LYP/SDD for astatobenzenes, B3LYP/6-31G(d,p)/MIDI! for the iodobenzenes, and B3LYP/6-31G(d,p) for 11-14; thermal and zero point energy corrected) showing how the effect of ortho fluorine substitution falls off as the bond strength of the C—X (where X=halogen) bond increases.
Table 4 depicts results of DFT calculations (B3LYP/6-31G(d,p)/MIDI! for compounds 15-22; thermal and zero point energy corrected) showing how the effect of ortho fluorine applies to heterocyclic systems.
Table 5 depicts results of density functional theory calculations (B3LYP/6-31G(d,p)/MIDI!; thermal and zero point energy corrected) for compounds 23-34, showing how the effect of ortho fluorine substituents applies to five-membered ring heterocycles. […]

SMILES	cytotoxicity relative to ^123I-MIBG [1]	C—I bond energy increase over the derivative in which the fluorine substituents are replaced by hydrogen atoms [2]
N=C(N)NCc1cccc([211At])c1 [^211At-MIBG]	approximately 1000 times	–
N[C@@H](Cc1cc(I)c(Oc2ccc(F)c(I)c2F)c(I)c1)C(=O)O	–	approximately 2.5 kcal/mol
